In patent US20220401564A1 (DANA-FARBER CANCER INSTITUTE, INC., priority 2019, published 2022):
“Also recorded” adds a separate entry of the source.

Key:
[1] = tested on: other identified HDAC proteins; assay: Change in cellular protein abundance (TMT proteomics) in Kelly cells; type: cell-based, human; settings: 1 μM, 5 hours, vs DMSO
Description: Lysis buffer (8 M Urea, 50 mM NaCl, 50 mM 4-(2hydroxyethyl)-1-piperazineethanesulfonic acid (EPPS) pH 8.5, protease and phosphatase inhibitors from Roche®) were added to the cell pellets and homogenized by 20 passes through a 21 gauge (1.25 in. long) needle to achieve a cell lysate with a protein concentration between 1-4 mg mL-1. A micro-BCA assay (Pierce™) was used to determine the final protein concentration in the cell lysate. 200 μg of protein for each sample were reduced and alkylated as described in Donovan et al., Elife 7:e38430 (2018).
Proteins were precipitated using methanol/chloroform. Four volumes of methanol were added to the cell lysate, followed by one volume of chloroform, and finally three volumes of water. The mixture was vortexed and centrifuged to separate the chloroform phase from the aqueous phase. […]
Anhydrous ACN was added to each peptide sample to a final concentration of 30% v/v, and labeling was induced with the addition of TMT reagent to each sample at a ratio of 1:4 peptide:TMT label. […] The sample channels were combined at a 1:1:1:1:1:1:1:1:1:1:1 ratio, desalted using Cis solid phase extraction cartridges (Waters®) and analyzed by LC-MS for channel ratio comparison. Samples were then combined using the adjusted volumes determined in the channel ratio analysis and dried down in a speed vacuum. […]

HDAC6 = target: T1, HDAC6 (Homo sapiens, UniProt Q9UBN7); assay: as above; type: cell-based; design: relative change in relative protein abundance with treatment of Kelly cells; endogenous in cells; host or cells: Kelly cells; settings: FIG. 3A
T1 sequence (Q9UBN7 1-1215): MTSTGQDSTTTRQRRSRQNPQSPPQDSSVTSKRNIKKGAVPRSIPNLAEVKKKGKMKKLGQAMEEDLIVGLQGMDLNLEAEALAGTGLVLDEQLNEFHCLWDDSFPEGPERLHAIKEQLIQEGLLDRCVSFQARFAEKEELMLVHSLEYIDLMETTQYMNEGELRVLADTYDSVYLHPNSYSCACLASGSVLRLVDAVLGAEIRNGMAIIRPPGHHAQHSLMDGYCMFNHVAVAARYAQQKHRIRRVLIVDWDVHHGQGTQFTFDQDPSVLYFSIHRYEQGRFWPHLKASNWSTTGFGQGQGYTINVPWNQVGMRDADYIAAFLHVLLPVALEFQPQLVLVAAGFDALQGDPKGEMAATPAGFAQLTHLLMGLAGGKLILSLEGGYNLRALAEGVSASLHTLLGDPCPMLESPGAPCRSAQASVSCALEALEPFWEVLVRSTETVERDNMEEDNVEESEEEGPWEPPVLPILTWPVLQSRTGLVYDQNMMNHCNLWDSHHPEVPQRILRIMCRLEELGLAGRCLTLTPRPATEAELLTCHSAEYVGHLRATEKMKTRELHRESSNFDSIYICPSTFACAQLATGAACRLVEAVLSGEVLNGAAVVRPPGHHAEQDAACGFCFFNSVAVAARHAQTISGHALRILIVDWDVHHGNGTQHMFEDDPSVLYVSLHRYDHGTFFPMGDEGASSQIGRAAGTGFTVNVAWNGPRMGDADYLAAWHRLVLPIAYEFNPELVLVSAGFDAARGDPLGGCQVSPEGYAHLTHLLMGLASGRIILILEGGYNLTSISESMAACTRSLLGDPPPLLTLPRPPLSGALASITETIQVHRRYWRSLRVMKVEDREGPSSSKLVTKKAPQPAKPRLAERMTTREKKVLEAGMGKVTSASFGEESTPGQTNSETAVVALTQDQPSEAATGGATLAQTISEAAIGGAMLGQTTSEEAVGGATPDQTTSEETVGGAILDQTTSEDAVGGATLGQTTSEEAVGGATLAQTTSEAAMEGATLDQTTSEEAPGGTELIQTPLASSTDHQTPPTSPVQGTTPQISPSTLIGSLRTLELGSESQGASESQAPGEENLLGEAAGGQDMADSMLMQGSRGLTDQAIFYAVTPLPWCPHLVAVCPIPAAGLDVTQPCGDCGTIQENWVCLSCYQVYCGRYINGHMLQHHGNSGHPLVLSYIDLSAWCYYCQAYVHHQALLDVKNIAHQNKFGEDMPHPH

Structure (SMILES) | cellular protein levels of the other identified HDAC proteins (heat map FIG. 2) [1] | HDAC6 protein levels, relative protein abundance compared to DMSO control (HDAC6)
Cc1ncsc1-c1ccc([C@H](C)NC(=O)[C@@H]2C[C@@H](O)CN2C(=O)[C@@H](NC(=O)CCOCCOCCN(CCc2c[nH]c3ccccc23)Cc2ccc(/C=C/C(=O)NO)cc2)C(C)(C)C)cc1 [Compound 2, (2S,4R)-1-((S)-14-(tert-butyl)-3-(4-((E)-3-(hydroxyamino)-3-oxoprop-1-en-1-yl)benzyl)-1-(1H-indol-3-yl)-12-oxo-6,9-dioxa-3,13-diazapentadecan-15-oyl)-4-hydroxy-N—((S)-1-(4-(4-methylthiazol-5-yl)phenyl)ethyl)pyrrolidine-2-carboxamide] | did not affect | 
Cc1ncsc1-c1ccc(CNC(=O)[C@@H]2C[C@@H](O)CN2C(=O)[C@@H](NC(=O)C2(F)CC2)C(C)(C)C)c(OCCCCCN(CCc2c[nH]c3ccccc23)Cc2ccc(/C=C/C(=O)NO)cc2)c1 [Compound 7, (2S,4R)—N-(2-((5-((2-(1H-indol-3-yl)ethyl)(4-((E)-3-(hydroxyamino)-3-oxoprop-1-en-1-yl)benzyl)amino)pentyl)oxy)-4-(4-methylthiazol-5-yl)benzyl)-1-((S)-2-(1-fluorocyclopropane-1-carboxamido)-3,3-dimethylbutanoyl)-4-hydroxypyrrolidine-2-carboxamide] |  | promote degradation; also recorded: significant and selective reduction
